From patent publication US20240217957A1, “HETEROCYCLIC COMPOUND AND USE THEREOF” (TAKEDA PHARMACEUTICAL COMPANY LIMITED, priority 2022, published 2024)

Experiments:
cynomolgus monkeys = test: Evaluation of wake-promoting effects in cynomolgus monkeys (EEG, EMG, locomotor activity); assay type: in vivo, cynomolgus monkey; details: 3 mg/kg p.o. at zeitgeber time 12, male cynomolgus monkeys, time spent in wakefulness for 4 hours after administration
Description: The wake-promoting effects were evaluated by measuring the electroencephalogram (EEG), electromyogram (EMG) and locomotor activity in cynomolgus monkeys. Under isoflurane anesthesia (0.5-5%, Pfizer Japan Inc., Tokyo, Japan), male cynomolgus monkeys (2-3 years old, Hamri Co., Ltd., Ibaraki, Japan) were surgically implanted with radio-telemetry transmitters (L03-F3, Data Sciences International Inc., MN, USA). The two EEG electrodes were stereotaxically positioned at the parietal area and secured to the cranium with stainless-steel screws in contact with the dura. Bilateral EMG electrodes were implanted into the back cervical muscles.
After at least a 1-month recovery period in home cages, the monkeys were habituated to the recording chamber (an acrylic cage 60 W×55 D×75 H (cm)) located in a soundproof and electrically shielded room by the time animals sleep sufficiently in the experimental room. Cortical EEG, EMG and locomotor activity were recorded using the telemetry system (PhysioTel Digital telemetry platform, Data Sciences International Inc.). The signals were semi-automatically scored in 20-second epochs by a sleep scoring system (SleepSign, Kissei Comtec Co., Ltd., Nagano, Japan).
Test compound (3 mg/kg) suspended in 0.5% methylcellulose aqueous solution or vehicle (i.e., 0.5% methylcellulose aqueous solution) was administered orally (p.o.) to monkeys at zeitgeber time 12 in a volume of 5 mL/kg body weight with a pretest-posttest design (n=2), and then EEG, EMG and locomotor activity were recorded. The time spent in wakefulness for 4 hours after administration (% of vehicle treatment) was calculated by using SleepSign.

human OX2 receptor = target: T1, human OX2 receptor (Homo sapiens, UniProt O43614); test: Measurement of orexin type 2 receptor agonist activity (calcium fluorescence, Fluo-4 AM, FDSS); assay type: cell-based; details: compound at 3 μM; CHO cells forcibly expressing human OX2 receptor; DMSO = 0%, 10 nM orexin A (human) = 100%
T1 construct: expressed in transfected cells
T1 sequence (O43614 1-444): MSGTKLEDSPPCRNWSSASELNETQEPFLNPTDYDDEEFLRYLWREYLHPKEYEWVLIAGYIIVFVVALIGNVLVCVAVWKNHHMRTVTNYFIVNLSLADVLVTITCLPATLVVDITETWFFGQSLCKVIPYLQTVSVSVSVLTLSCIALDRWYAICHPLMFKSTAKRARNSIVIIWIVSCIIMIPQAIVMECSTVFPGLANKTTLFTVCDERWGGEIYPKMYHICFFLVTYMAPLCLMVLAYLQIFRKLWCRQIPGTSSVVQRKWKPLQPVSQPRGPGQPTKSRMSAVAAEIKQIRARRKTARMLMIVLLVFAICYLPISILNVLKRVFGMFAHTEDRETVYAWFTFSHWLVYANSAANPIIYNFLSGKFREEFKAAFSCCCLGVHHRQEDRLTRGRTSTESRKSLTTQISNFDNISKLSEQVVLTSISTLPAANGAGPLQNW
Summary of the method: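 CHO-K1 cells stably expressing human OX2 receptor (residues 1-444) loaded with Fluo-4 AM in HBSS/20 mM HEPES/0.1% BSA with probenecid, 30 min at 37° C. then 30 min at room temperature. After compound addition, calcium fluorescence read for 1 min 40 s; activity (%) scaled to DMSO (0%) and 10 nM orexin A (100%).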

- OX2R agonist activity (3 μM, %) (human OX2 receptor): 100%
SMILES: C[C@@]1(c2ncc(F)cc2-c2c(F)cccc2F)CC(N2C[C@@H](NS(C)(=O)=O)C(F)(F)C2)=NO1 [Example 165, N-[(3R)-1-{(5S)-5-[3-(2,6-difluorophenyl)-5-fluoropyridin-2-yl]-5-methyl-4,5-dihydro-1,2-oxazol-3-yl}-4,4-difluoropyrrolidin-3-yl]methanesulfonamide]
- Wakefulness time (% of vehicle treatment) (Mean, n = 2) (cynomolgus monkeys): 716.25 % of vehicle treatment
